# Laboratory results from US20050095280A1, “Single-component pH-sensitive liposomes of reduced solid-to-liquid phase transition temperatures” (Michalakis Savva, priority 2003, published 2005).
# Tested on: B16F0 melanoma cells
# Experiment: Transfection activity in B16F0 melanoma cells
# Assay type: cell-based
# Details: in the absence of helper lipid DOPE
# Source text: FIG. 2 Transfection activity of 1,3lb3 and other commercially available cationic lipids in B16F0 melanoma cells. Lif/d stands for Lipofectamine/DOPE. The data are the average of six wells two independent experiments (n=3×2).
# FIG. 3 Transfection activity of 1,3lb3 (in the absence of DOPE) -a dipalmitoyl analogue with fluid lamellar phases at physiological pH and temperature-against B16F0 tumor melanoma cells. The plasmid DNA consisted of an EGFP reporter gene driven by the SV40 early promoter, cloned into a pUC21 vector (CloneTech Labs).
# FIG. 8 Transfection activity as tested by X-gal of cationic lipids against B16F0 melanoma cells in the absence of serum. The (+/−) ratio is fixed to 2. A. lb1 B. lb2 C. lb3 D. lb4 E. lb5
smiles,measurement,value
"CCCCCCCCCCCCCCCC(=O)NCC(CNC(=O)CCCCCCCCCCCCCCC)OC(=O)N(CCN(C)C)CCN(C)C [13lb3, N,N′-dihexadecanoyl-1,3-diaminopropyl-2-carbamoyl-[bis-(2-dimethylaminoethane)]]",Transfection activity,efficient transfection activity
